Experimental data: the supplement of paper PMC10307832

How the values were obtained:
Assay in all cases: relative viability (nuclei count vs DMSO), 5 days (fraction); higher = more cells survive
Dactolisib + Decitabine = compound: Cn1c(=O)n(-c2ccc(C(C)(C)C#N)cc2)c2c3cc(-c4cnc5ccccc5c4)ccc3ncc21 [Dactolisib] + Nc1ncn([C@H]2C[C@H](O)[C@@H](CO)O2)c(=O)n1 [Decitabine] (partner 2 µM)
In short: (§1)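 Medians of duplicate plates are given as relative viability. That measure is the nuclei count in treated wells divided by the count in vehicle wells. Counts were taken on 4× images of lung cancer cell lines in 1536-well plates, 5 days after pin-tool dosing the day after seeding with one drug alone or a fixed anchor-drug dose plus five library-drug doses (not always all listed) in √10 steps.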

AZ505 + Linsitinib = compound: C1CCC(CC1)N(CCNCCC2=C3C(=C(C=C2)O)NC(=O)CO3)C(=O)CCNCCC4=CC(=C(C=C4)Cl)Cl [AZ505] + C[C@]1(O)C[C@@H](c2nc(-c3ccc4ccc(-c5ccccc5)nc4c3)c3c(N)nccn32)C1 [Linsitinib] (partner 1 µM)
In short: as §1

AZ505 + Crizotinib = compound: C1CCC(CC1)N(CCNCCC2=C3C(=C(C=C2)O)NC(=O)CO3)C(=O)CCNCCC4=CC(=C(C=C4)Cl)Cl [AZ505] + C[C@@H](Oc1cc(-c2cnn(C3CCNCC3)c2)cnc1N)c1c(Cl)ccc(F)c1Cl [Crizotinib] (partner 1 µM)
In short: as §1

Dactolisib + Palbociclib = compound: Cn1c(=O)n(-c2ccc(C(C)(C)C#N)cc2)c2c3cc(-c4cnc5ccccc5c4)ccc3ncc21 [Dactolisib] + CC(=O)c1c(C)c2cnc(Nc3ccc(N4CCNCC4)cn3)nc2n(C2CCCC2)c1=O [Palbociclib] (partner 0.5 µM)
In short: as §1

Cell Line | relative viability (Dactolisib + Decitabine; first compound 0.002 µM) | relative viability (Dactolisib + Decitabine; first compound 0.006325 µM) | relative viability (Dactolisib + Decitabine; first compound 0.02 µM) | relative viability (Dactolisib + Decitabine; first compound 0.06325 µM) | relative viability (Dactolisib + Decitabine; first compound 0.2 µM) | relative viability (AZ505 + Linsitinib; first compound 0.08 µM) | relative viability (AZ505 + Linsitinib; first compound 0.253 µM) | relative viability (AZ505 + Linsitinib; first compound 0.8 µM) | relative viability (AZ505 + Linsitinib; first compound 2.53 µM) | relative viability (AZ505 + Linsitinib; first compound 8 µM) | relative viability (AZ505 + Crizotinib; first compound 0.08 µM) | relative viability (AZ505 + Crizotinib; first compound 0.253 µM) | relative viability (AZ505 + Crizotinib; first compound 0.8 µM) | relative viability (AZ505 + Crizotinib; first compound 2.53 µM) | relative viability (AZ505 + Crizotinib; first compound 8 µM) | relative viability (Dactolisib + Palbociclib; first compound 0.002 µM) | relative viability (Dactolisib + Palbociclib; first compound 0.006325 µM) | relative viability (Dactolisib + Palbociclib; first compound 0.02 µM) | relative viability (Dactolisib + Palbociclib; first compound 0.06325 µM) | relative viability (Dactolisib + Palbociclib; first compound 0.2 µM)
NCI-H596 | 1 | 0.965 | 0.814 | 0.718 | 0.523 | 0.953 | 0.932 | 0.933 | 1 | 0.908 | 0.922 | 0.495 | 0.799 | 0.972 | 0.985 | – | – | – | – | –
NCI-H1299 | – | – | – | – | – | 0.913 | 0.942 | 0.965 | 0.903 | 0.922 | 0.959 | 1.06 | 0.969 | 0.926 | 0.988 | – | – | – | – | –
NCI-H1395 | 0.601 | 0.69 | 0.667 | 0.505 | 0.447 | 0.972 | 1.01 | 0.949 | 0.971 | 1 | – | – | – | – | – | 0.558 | 0.589 | 0.556 | 0.452 | 0.419
NCI-H1563 | – | – | – | – | – | 1.24 | 1.32 | 1.13 | 1.29 | 1.15 | 0.831 | 0.807 | 0.805 | 0.848 | 0.809 | – | – | – | – | –
NCI-H1648 | 0.478 | 0.476 | 0.595 | 0.452 | 0.343 | – | – | – | – | – | – | – | – | – | – | 0.284 | 0.283 | 0.231 | 0.206 | 0.215
NCI-H1650 | 0.591 | 0.367 | 0.37 | 0.294 | 0.315 | – | – | – | – | – | 0.985 | 1.12 | 0.991 | 0.963 | 0.915 | 0.357 | 0.348 | 0.298 | 0.191 | 0.142
NCI-H1703 | – | – | – | – | – | 0.635 | 0.588 | 1.17 | 0.997 | 0.853 | 0.532 | 0.716 | 0.58 | 0.58 | 0.917 | – | – | – | – | –
NCI-H1793 | 0.454 | 0.319 | 0.266 | 0.231 | 0.172 | 0.766 | 0.769 | 0.932 | 1.03 | 1.06 | – | – | – | – | – | 0.289 | 0.212 | 0.21 | 0.212 | 0.19
NCI-H2170 | 0.489 | 0.466 | 0.476 | 0.371 | 0.354 | – | – | – | – | – | 1.07 | 1.24 | 1.12 | 1.26 | 1.22 | 0.379 | 0.385 | 0.316 | 0.205 | 0.167
NCI-H2228 | – | – | – | – | – | 0.418 | 0.651 | 0.53 | 0.549 | 0.49 | 0.373 | 0.518 | 0.369 | 0.467 | 0.342 | 0.882 | 0.725 | 0.638 | 0.197 | 0.147
NCI-H2342 | 0.726 | 0.689 | 0.677 | 0.58 | 0.501 | – | – | – | – | – | – | – | – | – | – | 0.556 | 0.535 | 0.505 | 0.454 | 0.466
SW 900 | 0.546 | 0.443 | 0.405 | 0.409 | 0.425 | – | – | – | – | – | – | – | – | – | – | 0.683 | 0.46 | 0.45 | 0.248 | 0.199
